Test system: BT20 Cell
Experiment: Cancer Cell Lysate Total L-Glutamate Assay
Assay type: cell-based
Details: Homo sapiens, BT-20, 2 h, total L-glutamate in cell lysate, BT20 cells, 2 hour incubation with test compound
Protocol: Cancer Cell Lysate Total L-Glutamate Assay
Cancer cell lines (BT20, HCT116, SKOV3, HCC70, SUM149, MDA-MB-231, etc.) were plated in 96 well plates and were used for the total L-glutamate assay when the monolayer was ca. 80% confluent. The media was changed and fresh media containing L-glutamine was added to the 96 well plates, just before incubation of the cells with test compound. The test compound was diluted in 100% DMSO using a two-fold or three-fold serial dilution. Small volumes of the dilutions of test compound were added to the 96 well plates so the final DMSO concentration was 0.5% v/v in the cell culture medium. The cells were incubated at 37° C., 5% CO2, and 95% air for 2 hours. Following the 2 hour incubation, the cells were washed with water 2 times. After the last water wash, 100 μL of 50 mM Tris-HCl pH 7.4 and 0.01% Tween-20 was added to each well and the plate was frozen at −80° C. The 96 well plate was frozen and thawed a total of 3 times and then sonicated for 5 min at 4° C. in a bath sonicator. Following sonication, the 96 well plate was centrifuged for 5 min at 1000 rpm and 10 μL of the supernatant was transferred to a 384 well assay plate.
Total L-glutamate (L-glutamic acid) in the cell lysis supernatant was detected using glutamate oxidase, horseradish peroxidase and Amplex Red reagent (10-acetyl-3,7-dihydroxy phenoxazine, Invitrogen # A22177). In this assay, L-glutamate was oxidized by glutamate oxidase to produce alpha-ketoglutarate (2-oxopentane dioic acid), NH3 and H202. The H2O2 (hydrogen peroxide) was used by horseradish peroxidase (HRP) to oxidize the Amplex Red Reagent to resorufin which is a fluorescent molecule. When resorufin is excited with light with a wavelength 530-560 nm, it emits light at approximately 585 nm. For detection of total L-glutamate in 10 μL of lysate, 15 μL of an enzyme mixture was added to each well of the 384 well assay plate. The enzyme mixture consisted of 50 mM Tris-HCl pH 7.4, 0.01% Tween-20, 50 μM Amplex Red reagent (final concentration), 0.04 U/mL L-glutamate oxidase (final concentration), and 0.125 U/mL HRP (final concentration). The 384 well assay plate was incubated at room temperature for 5 min and then the fluorescence intensity of each well was measured at 585 nm using a 530-560 nm excitation wavelength in a plate based fluorimeter such as an LJL Analyst or a Tecan Infinite plate reader. Standard curves were constructed for this assay using dilutions of a L-glutamate standard. IC50 were calculated by plotting the relative fluorescent units vs log of the inhibitor concentration and fitting the data to the four parameter logistic equation.
Reference: Chapman J. and Zhou M. (1999) Microplate-based fluorometric methods for the enzymatic determination of I-glutamate: application in measuring I-glutamate in food samples. Analytica Chim Acta 402:47-52.

Row | SMILES | IC50
1 | CC(=O)Nc1nnc(C2CC[C@H](Cc3nnc(NC(=O)Cc4ccccn4)s3)C2)s1 (single isomer, unassigned) [Example 19, N-[5-({(cis)-3-[5-(acetylamino)-1,3,4-thiadiazol-2-yl]cyclopentyl}methyl)-1,3,4-thiadiazol-2-yl]-2-(pyridin-2-yl)acetamide] | 1470 nM
2 | Cn1ccc(CC(=O)Nc2nnc([C@H]3CC[C@@H](Cc4ccc(NC(=O)Cc5ccccn5)nn4)C3)s2)n1 (single isomer, unassigned) [Example 126, 2-(1-methyl-1H-pyrazol-3-yl)-N-{5-[(cis)-3-({6-[(pyridin-2-ylacetyl)amino]pyridazin-3-yl}methyl)cyclopentyl]-1,3,4-thiadiazol-2-yl}acetamide] | 0.5 nM
3 | C[C@@H](C(=O)Nc1nnc(C[C@@H]2CC[C@H](c3nnc(NC(=O)[C@H](C)c4cccnc4)s3)C2)s1)c1cccnc1 (single isomer, unassigned) [Example 37, 2-(pyridin-3-yl)-N-(5-{[(cis)-3-(5-{[2-(pyridin-3-yl)propanoyl]amino}-1,3,4-thiadiazol-2-yl)cyclopentyl]methyl}-1,3,4-thiadiazol-2-yl)propanamide] | 19.4 nM
4 | CC(C)C(=O)Nc1ccc(C[C@H]2CC[C@@H](c3nnc(NC(=O)Cc4ccccn4)s3)C2)nn1 (single isomer, unassigned) [Example 78, 2-methyl-N-(6-{[(cis)-3-{5-[(pyridin-2-ylacetyl)amino]-1,3,4-thiadiazol-2-yl}cyclopentyl]methyl}pyridazin-3-yl)propanamide] | 3 nM
5 | CCC(=O)Nc1nnc([C@H]2CC[C@@H](Cc3ccc(NC(=O)Cc4ccccn4)nn3)C2)s1 [Example 119, N-{5-[(1S,3R)-3-({6-[(pyridin-2-ylacetyl)amino]pyridazin-3-yl}methyl)cyclopentyl]-1,3,4-thiadiazol-2-yl}propanamide] | 0.2 nM
6 | CC(=O)Nc1nnc(C[C@H]2CC[C@@H](c3nnc(NC(=O)Cc4ccccn4)s3)C2)s1 (single isomer, unassigned) [Example 56, N-{5-[(cis)-3-{[5-(acetylamino)-1,3,4-thiadiazol-2-yl]methyl}cyclopentyl]-1,3,4-thiadiazol-2-yl}-2-(pyridin-2-yl)acetamide] | 2700 nM
7 | O=C(Cc1ccccn1)Nc1nnc(CC2CCC(c3nnc(NC(=O)Cc4ccccn4)s3)C2)s1 (racemic) [Example 3, (rac)-2-(pyridin-2-yl)-N-(5-{[(cis)-3-{5-[(pyridin-2-ylacetyl)amino]-1,3,4-thiadiazol-2-yl}cyclopentyl]methyl}-1,3,4-thiadiazol-2-yl)acetamide] | 6.4 nM
8 | CC(=O)Nc1nnc([C@H]2CC[C@@H](Cc3nnc(NC(=O)Cc4ccccn4)s3)C2)s1 (single isomer, unassigned) [Example 17, N-[5-({(cis)-3-[5-(acetylamino)-1,3,4-thiadiazol-2-yl]cyclopentyl}methyl)-1,3,4-thiadiazol-2-yl]-2-(pyridin-2-yl)acetamide] | 12.2 nM
9 | CC(=O)Nc1nnc(C2CCC(Cc3nnc(N)s3)C2)s1 (racemic) [Example 42, (rac)-N-(5-{(cis)-3-[(5-amino-1,3,4-thiadiazol-2-yl)methyl]cyclopentyl}-1,3,4-thiadiazol-2-yl)acetamide] | 2370 nM
10 | CCC(=O)Nc1ccc(C[C@H]2CC[C@@H](c3nnc(NC(=O)Cc4ccn(C)n4)s3)C2)nn1 (single isomer, unassigned) [Example 91, N-(6-{[(cis)-3-(5-{[(1-methyl-1H-pyrazol-3-yl)acetyl]amino}-1,3,4-thiadiazol-2-yl)cyclopentyl]methyl}pyridazin-3-yl)propanamide] | 1.5 nM
11 | CC(=O)Nc1nnc([C@H]2CC3(C[C@H](c4nnc(NC(C)=O)s4)C3)C2)s1 (single isomer, unassigned) [Example 93, N,N′-(spiro[3.3]heptane-2,6-diyldi-1,3,4-thiadiazole-5,2-diyl)diacetamide] | 10.4 nM
12 | O=C(Cc1ccccn1)Nc1ccc(C[C@@H]2CC[C@H](c3nnc(Nc4ccccn4)s3)C2)nn1 (single isomer, unassigned) [Example 75, 2-(pyridin-2-yl)-N-[6-({(cis)-3-[5-(pyridin-2-ylamino)-1,3,4-thiadiazol-2-yl]cyclopentyl}methyl)pyridazin-3-yl]acetamide] | 1.1 nM
13 | CC(=O)Nc1nnc(C2CCC(Cc3nnc(NC(=O)Cc4ncccn4)s3)C2)s1 (racemic) [Example 46, (rac)-N-[5-({(cis)-3-[5-(acetylamino)-1,3,4-thiadiazol-2-yl]cyclopentyl}methyl)-1,3,4-thiadiazol-2-yl]-2-(pyrimidin-2-yl)acetamide] | 349 nM
14 | Cc1ccc(CC(=O)Nc2nnc(C[C@H]3C[C@H](c4nnc(NC(=O)Cc5ccc(C)cn5)s4)C3)s2)nc1 (single isomer, unassigned) [Example 109, 2-(5-methylpyridin-2-yl)-N-(5-{[trans-3-(5-{[(5-methylpyridin-2-yl)acetyl]amino}-1,3,4-thiadiazol-2-yl)cyclobutyl]methyl}-1,3,4-thiadiazol-2-yl)acetamide] | 1.3 nM
15 | O=C(CCn1cccn1)Nc1nnc(C[C@H]2CC[C@@H](c3nnc(NC(=O)Cc4ccccn4)s3)C2)s1 (racemic) [Example 143, (rac)-3-(1H-pyrazol-1-yl)-N-(5-{[(cis)-3-{5-[(pyridin-2-ylacetyl)amino]-1,3,4-thiadiazol-2-yl}cyclopentyl]methyl}-1,3,4-thiadiazol-2-yl)propanamide] | 4.2 nM
16 | CC(=O)Nc1nnc(C[C@@H]2CC[C@H](c3nnc(NC(C)=O)s3)C2)s1 (single isomer, unassigned) [Example 5] | 104 nM
17 | CCNc1nnc([C@H]2C[C@@H](Cc3ccc(NC(=O)Cc4ccccc4)nn3)C2)s1 (single isomer, unassigned) [Example 100, N-[6-({cis-3-[5-(ethylamino)-1,3,4-thiadiazol-2-yl]cyclobutyl}methyl)pyridazin-3-yl]-2-phenylacetamide] | 2.4 nM
18 | CC(=O)Nc1nnc(C[C@H]2CCC(c3nnc(NC(=O)Cc4ccncn4)s3)C2)s1 (single isomer, unassigned) [Example 21, N-{5-[(cis)-3-{[5-(acetylamino)-1,3,4-thiadiazol-2-yl]methyl}cyclopentyl]-1,3,4-thiadiazol-2-yl}-2-(pyrimidin-4-yl)acetamide] | > 6650 nM
19 | CC(=O)Nc1nnc(C2CCC(Cc3nnc(NC(=O)Cc4ccccn4)s3)C2)s1 (racemic) [Example 18, (rac)-N-[5-({(cis)-3-[5-(acetylamino)-1,3,4-thiadiazol-2-yl]cyclopentyl}methyl)-1,3,4-thiadiazol-2-yl]-2-(pyridin-2-yl)acetamide] | 79.7 nM
20 | CC(=O)Nc1ccc(C[C@@H]2CC[C@H](c3nnc(NC(=O)Cc4ccccn4)s3)C2)nn1 (single isomer, unassigned) [Example 69, N-{5-[(cis)-3-{[6-(acetylamino)pyridazin-3-yl]methyl}cyclopentyl]-1,3,4-thiadiazol-2-yl}-2-(pyridin-2-yl)acetamide] | 2.5 nM
21 | O=C(Cc1ccccn1)Nc1nnc(C[C@@H]2CC[C@H](c3nnc(NC(=O)Cc4ccccn4)s3)C2)s1 (single isomer, unassigned) [Example 2] | 1 nM
22 | C[C@H](C(=O)Nc1nnc(C[C@H]2CC[C@@H](c3nnc(NC(=O)[C@H](C)c4cccnc4)s3)C2)s1)c1cccnc1 (single isomer, unassigned) [Example 34, 2-(pyridin-3-yl)-N-(5-{[(cis)-3-(5-{[2-(pyridin-3-yl)propanoyl]amino}-1,3,4-thiadiazol-2-yl)cyclopentyl]methyl}-1,3,4-thiadiazol-2-yl)propanamide] | 942 nM
23 | O=C(Cc1ccccn1)Nc1ccc(C[C@@H]2CC[C@H](c3nnc(NC(=O)Cc4ccccn4)s3)C2)nn1 (single isomer, unassigned) [Example 72, 2-(pyridin-2-yl)-N-{5-[(cis)-3-({6-[(pyridin-2-ylacetyl)amino]pyridazin-3-yl}methyl)cyclopentyl]-1,3,4-thiadiazol-2-yl}acetamide] | 0.9 nM

Same assay, conditions: total L-glutamate in cell lysate, BT20 cells, 2 hour incubation with test compound

Row | SMILES | IC50
24 | Cn1ccc(CC(=O)Nc2nnc([C@H]3CC4(C[C@H](c5nnc(NC(=O)Cc6ccn(C)n6)s5)C4)C3)s2)n1 (stereo partly drawn) [Example 97, N,N′-(spiro[3.3]heptane-2,6-diyldi-1,3,4-thiadiazole-5,2-diyl)bis[2-(1-methyl-1H-pyrazol-3-yl)acetamide]] | 2.7 nM

Reference: US10676471B2, “Cycloalkyl-linked diheterocycle derivatives” (Pfizer Inc., priority 2014, dated 2020)
